Laboratory results as given in patent US12606541B2, “PPARg modulators and methods of use” (Eisai R&D Management Co., Ltd., priority 2020, dated 2026).
Where two headings read alike, the source gives them in different places.

Assays:
UM-UC-9 engineered cells = assay: Cell proliferation / short-term viability assay, CellTiter-Glo 144 h; format: cell-based, human; settings: read-out: CTGlo 144 h UMUC9.5, G150
In short: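 Viability read by CellTiter-Glo 2.0 luminescence at day 7 versus DMSO-vehicle wells and a T0 plate measured on day 0. Cells: UM-UC-9 engineered assay-ready stocks, 500 cells/well in high-glucose DMEM with 10% FBS, 37° C, 5% CO2.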

His6-TEV-PPARγ-(234-505) = target: T1, His6-TEV-PPARγ-(234-505) (Homo sapiens, UniProt P37231); assay: TR-FRET Assay to Measure Co-R Peptide Recruitment to PPARγ; format: biochemical; settings: Co-R peptide (SMRT-ID2) recruitment; top final concentration 20 μM; read-out: TR-FRET i-Ag; AC50
T1 construct: The His6-TEV-PPARγ-(234-505) protein for assay was expressed and purified; TEV cleavage site (N); made in house
T1 sequence (P37231 234-505): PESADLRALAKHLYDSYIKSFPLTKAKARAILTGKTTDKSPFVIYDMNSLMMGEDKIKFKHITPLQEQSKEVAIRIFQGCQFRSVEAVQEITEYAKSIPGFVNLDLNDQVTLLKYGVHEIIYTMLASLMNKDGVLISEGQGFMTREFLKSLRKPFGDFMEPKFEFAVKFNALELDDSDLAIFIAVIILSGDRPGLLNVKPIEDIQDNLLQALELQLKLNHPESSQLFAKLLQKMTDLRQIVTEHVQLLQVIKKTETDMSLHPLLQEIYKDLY
In short: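 Corepressor recruitment is measured by adding terbium-labeled anti-His antibody and FITC SMRT-ID2 peptide, at 5 and 200 nM final, after a 20-minute room-temperature protein–compound incubation. After one further hour, signal is converted to percent response between DMSO and 500 nM T0070907 wells.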

Compound | IC50 (UM-UC-9 engineered cells) [nM] | AC50 (His6-TEV-PPARγ-(234-505)) [nM] | IC50 (UM-UC-9 engineered cells; Homo sapiens, UM-UC-9, 144 h) [nM]
COc1cc(-c2cc(C(=O)N3CCC(C(=O)NC4CCC(C(F)(F)F)C(O)C4)CC34CC4)n[nH]2)c(F)cn1 (mixture of isomers) [Example 501, (S)-4-(5-(5-fluoro-2-methoxypyridin-4-yl)-1H-pyrazole-3-carbonyl)-N-((1R,3R,4S)-3-hydroxy-4-(trifluoromethyl)cyclohexyl)-4-azaspiro[2.5]octane-7-carboxamide and (S)-4-(5-(5-fluoro-2-methoxypyridin-4-yl)-1H-pyrazole-3-carbonyl)-N-((1S,3S,4R)-3-hydroxy-4-(trifluoromethyl)cyclohexyl)-4-azaspiro[2.5]octane-7-carboxamide] | 13 | 5.4 | 
COc1cc(-c2cc(C(=O)N3CCC(C(=O)NC4CCCn5cc(C(F)(F)F)nc54)CC34CC4)n[nH]2)c(F)cn1 (mixture of isomers) [Example 502, (S)-4-(5-(5-fluoro-2-methoxypyridin-4-yl)-1H-pyrazole-3-carbonyl)-N—((S)-2-(trifluoromethyl)-5,6,7,8-tetrahydroimidazo[1,2-a]pyridin-8-yl)-4-azaspiro[2.5]octane-7-carboxamide and (S)-4-(5-(5-fluoro-2-methoxypyridin-4-yl)-1H-pyrazole-3-carbonyl)-N—((R)-2-(trifluoromethyl)-5,6,7,8-tetrahydroimidazo[1,2-a]pyridin-8-yl)-4-azaspiro[2.5]octane-7-carboxamide] | 50.6 | 11.8 | 
COc1cc(-c2cc(C(=O)N3CCC(C(=O)NCC4CCNCC4(F)F)CC34CC4)n[nH]2)c(F)cn1 (mixture of isomers) [Example 511, (S)—N—(((S)-3,3-difluoropiperidin-4-yl)methyl)-4-(5-(5-fluoro-2-methoxypyridin-4-yl)-1H-pyrazole-3-carbonyl)-4-azaspiro[2.5]octane-7-carboxamide and (S)—N—(((R)-3,3-difluoropiperidin-4-yl)methyl)-4-(5-(5-fluoro-2-methoxypyridin-4-yl)-1H-pyrazole-3-carbonyl)-4-azaspiro[2.5]octane-7-carboxamide] | 95.2 | 10.6 | 
COc1cc(-c2cc(C(=O)N3CCC(C(=O)Nc4cnn5c4CC(O)CC5)CC34CC4)n[nH]2)c(F)cn1 (mixture of isomers) [Example 514, (S)-4-(5-(5-fluoro-2-methoxypyridin-4-yl)-1H-pyrazole-3-carbonyl)-N—((S)-5-hydroxy-4,5,6,7-tetrahydropyrazolo[1,5-a]pyridin-3-yl)-4-azaspiro[2.5]octane-7-carboxamide and (S)-4-(5-(5-fluoro-2-methoxypyridin-4-yl)-1H-pyrazole-3-carbonyl)-N—((R)-5-hydroxy-4,5,6,7-tetrahydropyrazolo[1,5-a]pyridin-3-yl)-4-azaspiro[2.5]octane-7-carboxamide] | > 10000 | 33.7 | 
COc1cc(-c2cc(C(=O)N3CCC(C(=O)NC45CC(CO)(C4)OC5C)CC34CC4)n[nH]2)c(F)cn1 (mixture of isomers) [Example 518, (S)-4-(5-(5-fluoro-2-methoxypyridin-4-yl)-1H-pyrazole-3-carbonyl)-N—((R)-1-(hydroxymethyl)-3-methyl-2-oxabicyclo[2.1.1]hexan-4-yl)-4-azaspiro[2.5]octane-7-carboxamide and (S)-4-(5-(5-fluoro-2-methoxypyridin-4-yl)-1H-pyrazole-3-carbonyl)-N—((S)-1-(hydroxymethyl)-3-methyl-2-oxabicyclo[2.1.1]hexan-4-yl)-4-azaspiro[2.5]octane-7-carboxamide] | 4050 | 149 | 
COc1cc(-c2cc(C(=O)N3CCC(C(=O)NC4CCCC(O)(C(F)(F)F)C4)CC34CC4)n[nH]2)c(F)cn1 (mixture of isomers) [Example 524] | 341 | 128 | 
CCC1CCC(NC(=O)C2CCN(C(=O)c3cc(-c4ccnc(OC)c4)[nH]n3)CC2)CC1 (racemic) [Example 108, N-(4-ethylcyclohexyl)-1-(5-(2-methoxypyridin-4-yl)-1H-pyrazole-3-carbonyl)piperidine-4-carboxamide] |  | 178 | 830
COc1cc(-c2cc(C(=O)N3CCC(C(=O)NC4COCc5ccccc54)CC3)n[nH]2)c(Cl)cn1 (racemic) [Example 132, 1-(5-(5-chloro-2-methoxypyridin-4-yl)-1H-pyrazole-3-carbonyl)-N-(isochroman-4-yl)piperidine-4-carboxamide] |  | 24.6 | 136
COc1cc(-c2cc(C(=O)N3CCC(C(=O)NCC4CC(C)(C)O4)CC3)n[nH]2)c(Cl)cn1 (racemic) [Example 135, 1-(5-(5-chloro-2-methoxypyridin-4-yl)-1H-pyrazole-3-carbonyl)-N-((4,4-dimethyloxetan-2-yl)methyl)piperidine-4-carboxamide] |  | 483 | 2650
COc1cc(-c2cc(C(=O)N3CCC(C(=O)NC4CCC(F)(F)C4)CC3)n[nH]2)c(Cl)cn1 (racemic) [Example 175, 1-(5-(5-chloro-2-methoxypyridin-4-yl)-1H-pyrazole-3-carbonyl)-N-(3,3-difluorocyclopentyl)piperidine-4-carboxamide] |  | 349 | 1640
COc1cc(-c2cc(C(=O)N3CCC(C(=O)NCC4COC(C)(C)O4)CC3)n[nH]2)c(Cl)cn1 (racemic) [Example 185, 1-(5-(5-chloro-2-methoxypyridin-4-yl)-1H-pyrazole-3-carbonyl)-N-((2,2-dimethyl-1,3-dioxolan-4-yl)methyl)piperidine-4-carboxamide] |  | 735 | 1550
COc1cc(-c2cc(C(=O)N3CCC(C(=O)NC4CCN(C)c5ccccc54)CC3)n[nH]2)c(Cl)cn1 (racemic) [Example 186, 1-(5-(5-chloro-2-methoxypyridin-4-yl)-1H-pyrazole-3-carbonyl)-N-(1-methyl-1,2,3,4-tetrahydroquinolin-4-yl)piperidine-4-carboxamide] |  | 202 | 339
COc1cc(-c2cc(C(=O)N3CCC(C(=O)NC4CCCc5cnccc54)CC3)n[nH]2)c(Cl)cn1 (racemic) [Example 191, 1-(5-(5-chloro-2-methoxypyridin-4-yl)-1H-pyrazole-3-carbonyl)-N-(5,6,7,8-tetrahydroisoquinolin-5-yl)piperidine-4-carboxamide] |  | 838 | 2010
COc1cc(-c2cc(C(=O)N3CCC(C(=O)NC4CCOc5ccc(F)cc54)CC3)n[nH]2)c(Cl)cn1 (racemic) [Example 195, 1-(5-(5-chloro-2-methoxypyridin-4-yl)-1H-pyrazole-3-carbonyl)-N-(6-fluorochroman-4-yl)piperidine-4-carboxamide] |  | 212 | 348
COc1cc(-c2cc(C(=O)N3CCC(C(=O)NC4CCN(c5ccccc5)C4=O)CC3)n[nH]2)c(Cl)cn1 (racemic) [Example 207, 1-(5-(5-chloro-2-methoxypyridin-4-yl)-1H-pyrazole-3-carbonyl)-N-(2-oxo-1-phenylpyrrolidin-3-yl)piperidine-4-carboxamide] |  | 889 | 5670
COc1cc(-c2cc(C(=O)N3CCC(C(=O)NC4COC(C)(C)C4)CC3)n[nH]2)c(Cl)cn1 (racemic) [Example 213, 1-(5-(5-chloro-2-methoxypyridin-4-yl)-1H-pyrazole-3-carbonyl)-N (5,5-dimethyltetrahydrofuran-3-yl)piperidine-4-carboxamide] |  | 571 | 1640
COc1cc(-c2cc(C(=O)N3CCC(C(=O)NCC4CC(F)(F)CO4)CC3)n[nH]2)c(Cl)cn1 (racemic) [Example 220, 1-(5-(5-chloro-2-methoxypyridin-4-yl)-1H-pyrazole-3-carbonyl)-N-((4,4-difluorotetrahydrofuran-2-yl)methyl)piperidine-4-carboxamide] |  | 286 | 2130
COc1cc(-c2cc(C(=O)N3CCC(C(=O)NC4CCN(c5ccccc5F)C4)CC3)n[nH]2)c(Cl)cn1 (racemic) [Example 222, 1-(5-(5-chloro-2-methoxypyridin-4-yl)-1H-pyrazole-3-carbonyl)-N-(1-(2-fluorophenyl)pyrrolidin-3-yl)piperidine-4-carboxamide] |  | 18.5 | 208
COc1cc(-c2cc(C(=O)N3CCC(C(=O)NC4CCCc5nc(C)ncc54)CC3)n[nH]2)c(Cl)cn1 (racemic) [Example 224, 1-(5-(5-chloro-2-methoxypyridin-4-yl)-1H-pyrazole-3-carbonyl)-N-(2-methyl-5,6,7,8-tetrahydroquinazolin-5-yl)piperidine-4-carboxamide] |  | 554 | 5180
COc1cc(-c2cc(C(=O)N3CCC(C(=O)NC4CN(C)Cc5ccccc54)CC3)n[nH]2)c(Cl)cn1 (racemic) [Example 227, 1-(5-(5-chloro-2-methoxypyridin-4-yl)-1H-pyrazole-3-carbonyl)-N-(2-methyl-1,2,3,4-tetrahydroisoquinolin-4-yl)piperidine-4-carboxamide] |  | 947 | 5960
